The values that follow come from article PMC11110727, “Exploiting thiol-functionalized benzosiloxaboroles for achieving diverse substitution patterns – synthesis, characterization and biological evaluation of promising antibacterial agents” (RSC Medicinal Chemistry, 2024).

For one series, the system named is E. cloacae DSM 6234. Kind of series: Antibacterial activity: MIC/MBC, MIC with PAβN, disc-diffusion. It is filed as cell-based, Enterobacter cloacae. The conditions noted are these: Enterobacter cloacae, DSM6234. An outline of the steps: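 MICs were measured by CLSI broth microdilution in Mueller–Hinton II broth, with or without the efflux-pump inhibitor PAβN (20 μg mL^−1) and with 1 mM MgSO4 present. A reduction of at least 4-fold with PAβN was counted as significant. Disc diffusion followed EUCAST/CLSI, MBC followed CLSI, and compounds were dissolved in DMSO.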
For orientation: In agar diffusion tests the substance spreads into inoculated agar from a disc or well.

The next series concerns C. krusei ATCC 6258. Kind of series: Antifungal activity: MIC/MFC, disc-diffusion. Type of series: cell-based. The conditions noted are these: for MIC: Pichia kudriavzevii, ATCC6258. An outline of the steps:
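Yeast subcultured on Sabouraud dextrose agar 24–48 h at 30 °C before testing. Disc-diffusion and MIC per EUCAST and CLSI recommendations; MFC per CLSI. Compounds dissolved in DMSO.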

The next series deals with C. albicans ATCC 90028. Kind of series: Antifungal activity: MIC/MFC, disc-diffusion. It is filed as cell-based, Candida albicans. The conditions noted are these: Candida albicans, ATCC90028. The procedure, abridged:
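Disc-diffusion and broth MIC assays followed EUCAST and CLSI recommendations; MBC/MFC were determined per CLSI. Strains were subcultured twice before testing (bacteria on tryptic soy agar, yeasts on Sabouraud dextrose agar, 24–48 h, 30 °C). Compounds were dissolved in DMSO.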

The subject of series [1] is Staphylococcus aureus, MSSA and MRSA strains. Kind of series: Antibacterial activity against S. aureus strains (text summaries). It is filed as cell-based. The conditions noted are these: for Eagle effect (paradoxical growth) during MBC determination: S. aureus ATCC 6538P and five MRSA clinical strains. The protocol: Direct antimicrobial activity was determined against the following standard strains: (1) Gram-positive cocci: methicillin-sensitive Staphylococcus aureus ATCC 6538P (MSSA), methicillin-resistant S. aureus subsp. aureus ATCC 43300 (MRSA), S. epidermidis ATCC 12228, Enterococcus faecium ATCC 6057, E. faecalis ATCC 29212, Bacillus subtilis ATCC 6633; (2) Gram-negative bacteria from Enterobacteriales order: Klebsiella pneumoniae ATCC 13883, Escherichia coli ATCC 25922, Enterobacter cloacae DSM 6234, Proteus mirabilis ATCC 12453, Serratia marcescens ATCC 13880; (3) Gram-negative non-fermentative rods: Acinetobacter baumannii ATCC 19606, Pseudomonas aeruginosa ATCC 27853, Stenotrophomonas maltophilia ATCC 12714, S. maltophilia ATCC 13637, Burkholderia cepacia ATCC 25416, Bordetella bronchiseptica ATCC 4617; (4) yeasts: Candida albicans ATCC 90028, C. krusei ATCC 6258, C. parapsilosis ATCC 22019, C. tropicalis (Castellani) Berkhout ATCC 750, C. tropicalis IBA 171, C. guilliermondii IBA 155, and Saccharomyces cerevisiae ATCC 9763. Moreover, 5 clinical strains of methicillin-resistant S. aureus were also included: NMI 664 K, NMI 1576 K, NMI 1712 K, NMI 1991 K, and NMI 2541 K. All strains were stored at −80 °C. Prior to testing, each bacterial strain was subcultured twice on tryptic soy agar TSA (bioMerieux) medium and yeast strains on Sabouraud dextrose agar (bioMerieux) for 24–48 h at 30 °C to ensure viability. The antimicrobial activity was evaluated as previously described[26] by the disc-diffusion method and the MIC determination assays according to the EUCAST (ref. [71] and [72]) and CLSI (ref. [53] and [73]) recommendations. Assessment of bactericidal (MBC) and fungicidal (MFC) activities was performed according to the CLSI recommendations.[54,74] The following reference agents were used: fluconazole (in the case of fungi), linezolid (for Gram-positive bacteria), and nitrofurantoin (for Gram-negative rods). The new benzosiloxaboroles were dissolved in DMSO (Sigma).

The subject of series [2] is Human normal lung fibroblasts MRC-5. Kind of series: MTT-based viability (cytotoxicity) assay. The conditions noted are these: for IC50: Homo sapiens, MRC5, 48 h. The procedure, abridged: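 MRC-5 pd30 human lung fibroblasts in supplemented MEME at 37 °C, 5% CO2; viability by MTT, absorbance 570 nm, triplicate, as percent of control cells. Selectivity index taken as IC50/MIC against S. aureus MRSA strains.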

Setting [3] is: E. cloacae DSM 6234, read-out: MIC.
The mark [4] stands for this setting: Staphylococcus aureus, both MSSA and MRSA strains, read-out: MIC values against Staphylococcus aureus.

Values after ≈ are worked out from the molar mass of the structure shown. Where two headings read alike, the source gives them in different places. Some results are limits rather than exact numbers.

For `C[Si]1(C)OB(O)c2ccc(SCC(=O)c3ccccc3)c(F)c21` [Compound 23, 2-((7-Fluoro-3-hydroxy-1,1-dimethyl-1,3-dihydrobenzo[c][1,2,5]oxasilaborol-6-yl)thio)-1-phenylethan-1-one], the MIC (as a rule, the lowest concentration that inhibits growth of the organism) is greater than 400 µg/mL in the series on E. cloacae DSM 6234 (setting [3]); 200 µg/mL (≈ 578 µM) with C. krusei ATCC 6258 (read-out: MIC); greater than 400 µg/mL in the series with C. albicans ATCC 90028 (read-out: MIC); 1.56 to 12.5 µg/mL (≈ 4.51 to 36.1 µM) in series [1] (setting [4]); 1.56 to 3.12 µg/mL (≈ 4.51 to 9.01 µM) in series [1] (Staphylococcus aureus, standard and five clinical MRSA strains (Table 4), read-out: MIC (MRSA)). Also, the “diameter of inhibition zone” value in the series with C. krusei ATCC 6258 (C. krusei ATCC 6258, (-) = zone not observed, paper discs 9 mm) turned out to be 12 mm. In series [1], the “Eagle effect (paradoxical growth) during MBC determination” value is recorded as “Eagle effect”. Also, the “viability of MRC-5” value in series [2] (6.25 µg·mL−1, 48 h) is on record as 99.3±8.4 % of control ± SD; in series [2] (12.5 µg·mL−1, 48 h), 94.3±0.1 % of control ± SD; in series [2] (25 µg·mL−1, 48 h), 83.3±4.4 % of control ± SD; in series [2] (50 µg·mL−1, 48 h) it was 85.9±5.1 % of control ± SD; in series [2] (100 µg·mL−1, 48 h) it was 64.2±3.6 % of control ± SD; in series [2] (200 µg·mL−1, 48 h), 32.0±0.3 % of control ± SD. The “viability of MRC-5” value in series [2] (400 µg·mL−1, 48 h) is on record as 1.0±1.3 % of control ± SD. The half-maximal inhibitory concentration (IC50) (commonly the midpoint of a concentration-inhibition curve) in series [2] was 126 µg/mL (≈ 364 µM).

Consider `CCOP(=O)(OCC)Sc1c(F)cc2c(c1F)[Si](C)(C)OB2O` [Compound 24, S-(5,7-Difluoro-3-hydroxy-1,1-dimethyl-1,3-dihydrobenzo[c][1,2,5]oxasilaborol-6-yl) O,O-diethyl phosphorothioate], for which the minimum inhibitory concentration (MIC) is greater than 400 µg/mL in the series on E. cloacae DSM 6234, greater than 400 µg/mL against C. krusei ATCC 6258, greater than 400 µg/mL with C. albicans ATCC 90028 and 1.56 to 12.5 µg/mL (≈ 4.08 to 32.7 µM) in series [1] (setting [4]). In series [1], the “Eagle effect (paradoxical growth) during MBC determination” value was “Eagle effect”. In addition, the “viability of MRC-5” value in series [2] (6.25 µg·mL−1, 48 h) was 95.5±1.4 % of control ± SD; in series [2] (12.5 µg·mL−1, 48 h), 83.9±0.1 % of control ± SD; in series [2] (25 µg·mL−1, 48 h) it was 81.6±2.6 % of control ± SD; in series [2] (50 µg·mL−1, 48 h), 78.2±3.0 % of control ± SD; in series [2] (100 µg·mL−1, 48 h) it was 73.0±4.0 % of control ± SD; in series [2] (200 µg·mL−1, 48 h) it was 76.5±3.8 % of control ± SD. Moreover, the “viability of MRC-5” value in series [2] (400 µg·mL−1, 48 h) is 60.5±3.8 % of control ± SD. In addition, the IC50 in series [2] is greater than 400 µg/mL.

As to `C[Si]1(C)OB(O)c2ccc(SC(=O)c3ccc(C(F)(F)F)cc3)c(F)c21` [Compound 25, S-(7-Fluoro-3-hydroxy-1,1-dimethyl-1,3-dihydrobenzo[c][1,2,5]oxasilaborol-6-yl) 4-(trifluoromethyl)benzothioate], the MIC in the series on E. cloacae DSM 6234 (setting [3]) was greater than 50 µg/mL; in the series with C. krusei ATCC 6258 (read-out: MIC) it was greater than 50 µg/mL; in the series with C. albicans ATCC 90028 (read-out: MIC), 50 µg/mL (≈ 125 µM). The MBC (as a rule, the lowest tested concentration that kills the bacteria rather than only halting them) in series [1] (Staphylococcus aureus, lowest MBC values) fell in the range of 25 to 50 µg/mL (≈ 62.5 to 125 µM). Moreover, in series [2], the IC50 worked out at 112 µg/mL (≈ 279 µM).
